# Values joined by “and” are separate entries in the source; they are usually repeats but may differ in a detail not shown here. Identical values can stand only once.
# Key:
# MMP-13 = MMP-13 ELISA on supernatants of TNF-α-treated chondrogenic pellets; assay type: cell-based, human
# MMT/MCLT rat model of OA [1] = assay: MMT/MCLT trial 1 histopathology (same doses); assay type: in vivo; details: low or only dose
# Description: For MMT/MCLT rat knee joints, sections were cut in 200-μm steps; stained with toluidine blue (also with a right and left half per section); and similarly analyzed for cartilage degeneration, proteoglycan loss, collagen damage, and osteophyte formation. Results were averaged across the three sections for an overall semiquantitative score. Regional differences across the tibial plateau were taken into consideration by dividing each section into three zones delineated using an ocular micrometer (outside, middle, and inside). Scores were based on the percentage of area affected within the zone.
# Cartilage degeneration in the tibia was scored on a 5-point scale as detailed in the Methods section of Additional file 1. The total extent of degeneration of the tibial plateau was measured (in micrometers) and included an analysis of cell loss, proteoglycan loss, and collagen damage. Significant cartilage degeneration reflecting any degeneration extending through more than 50 % of the cartilage thickness was also measured. Collagen damage across the medial tibial plateau (the most severely affected section of the two halves) was also quantified.
# Osteophytes and femoral cartilage degeneration were analyzed as detailed in Additional file 1. Scoring of the osteophytes and categorization into small, medium, and large was performed using an ocular micrometer. The actual osteophyte measurement (tidemark to farthest distance point extending toward the synovium) was also recorded. The femoral cartilage degeneration score and the three-zone sum of the tibial cartilage degeneration scores (mean of three levels) were summed to create a total cartilage degeneration score. The mean osteophyte score for each joint was added to this value to create a total joint score. […]
# Histopathology MMT/MCLT Model
# MMT/MCLT rat model of OA [2] = assay: MMT/MCLT trial 1 weight bearing (daily morphine 10 mg/kg, tacrolimus 0.3 or 0.6 mg/kg, fluocinolone 5 or 10 μg/kg, clonidine 100 μg/kg, alendronate 10 μg/kg i.p.; curcumin, withaferin 50 mg/kg p.o.); assay type: in vivo; details: low or only dose
# Experimental: Weight bearing (WB; incapacitance) was measured five times per day, once per week, using a Linton incapacitance meter (Stoelting Co., Wood Dale, IL, USA). Rats were acclimated to the meter before study initiation, and, similarly, immediately before WB, the animals were placed in the meter and allowed to acclimate for 2–5 minutes. Each hind paw was placed on a separate force plate so that the force exerted by each side could be averaged over a 5-second interval, and the mean of three readings was taken for each data point. Right paw force was compared with that on the left side for each group to confirm that animals were displaying incapacitance and/or pain behavior. Differences in force (left minus right) and right paw force as a percentage of the total force exerted by both paws were determined and compared between groups.
# Following isoflurane anesthesia, the medial collateral ligament was transected just below its attachment to the meniscus in the right knee. The meniscus was cut at its narrowest point away from the ossicles so as not to damage the tibial surface and to ensure that the anterior and posterior meniscus halves were freely movable. […] In trial 2, drugs were administered IA weekly beginning 1 week following surgery. Three weeks postsurgery, animals were humanely killed and their right knees were collected for histopathology. All studies were conducted in accordance with the International Association for the Study of Pain Guidelines and were approved by the Bolder BioPATH IACUC (Boulder, CO, USA) in compliance with regulations before study initiation (IACUC protocol BBP03-006). Those running the studies were blinded to the treatments. See Additional file 1 for further details.
# Isoflurane and the right knee area prepared for surgery. A skin incision was made over the medial aspect of the knee and the medial collateral ligament was exposed by blunt dissection and then transected. The medial meniscus was cut through the full thickness to simulate a complete tear and the skin was then closed with suture.
# All pharmaceutical agents were prepared and stored as recommended by the supplier. Daily drug preparations were made fresh from stock solutions. […]
# In Trial 2 drugs were […]
# administered IA weekly beginning one week following surgery. […]
# were delivered by gavage and were prepared in 0.3% Methyl Cellulose.
# WB was measured five times a day, once a week, using a Linton incapacitance meter (Stoelting Co.) to assess pain behavior. Rats were acclimated to the incapacitance meter prior to study initiation.
# Similarly, immediately prior to WB animals were placed in the incapacitance meter and allowed to acclimate for 2-5 minutes. Each hind paw was placed on a separate force plate so that the force exerted by each side could be averaged over a 5 second interval and the mean of three readings taken for each data point. Right paw force was compared to left for each group to confirm that animals were displaying incapacitance / pain behavior. Difference in force (left minus right) and right paw force as a percentage of the total force exerted by both paws were determined and compared between groups. Three weeks after surgery, animals were humanely euthanized and right knees collected for histopathology evaluation.
# Figure 2. MMT/MCLT Trial Timeline […]
# MMT/MCLT Dosing (once/day)
# The study design and animal usage was approved by Bolder BioPATH’s Institutional Animal Care and Use Committee (IACUC) for compliance with regulations prior to study initiation (IACUC […]
# Labs. Animals were identified by a distinct mark at the base of the tail delineating group and animal number. After randomization, all cages were labeled with protocol number, group numbers, and animal numbers with appropriate color-coding (see protocol).
smiles,measurement,setting,value
"NCCCC(O)(P(=O)(O)O)P(=O)(O)O [Alendronate, Alendronate sodium]",Effective range against MMP-13,MMP-13,Not effective
same,Bone score,MMT/MCLT rat model of OA [1]; mean,2.75
same,Femoral cartilage degeneration score,MMT/MCLT rat model of OA [1]; mean,1.79 and 1.79 ± 0.60
same,"Tibial cartilage degeneration score, 3-zone total",MMT/MCLT rat model of OA [1]; mean,5.83
same,"Tibial cartilage degeneration score, zone 1",MMT/MCLT rat model of OA [1]; mean,3.79
same,"Tibial cartilage degeneration score, zone 2",MMT/MCLT rat model of OA [1]; mean,2.04
same,"Tibial cartilage degeneration score, zone 3",MMT/MCLT rat model of OA [1]; mean,0.00
same,"Tibial cartilage degeneration width, significant",MMT/MCLT rat model of OA [1]; mean,650.00 µm
same,"Tibial cartilage degeneration width, total",MMT/MCLT rat model of OA [1]; mean,1175.00 µm
same,Tibial osteophyte measure,MMT/MCLT rat model of OA [1]; mean,479.17 µm
same,Tibial osteophyte score,MMT/MCLT rat model of OA [1]; mean,3.63
same,Total joint score,MMT/MCLT rat model of OA [1]; mean,11.25
same,Total joint score w/o femur,MMT/MCLT rat model of OA [1]; mean,9.46
same,"% decrease, bone score",MMT/MCLT rat model of OA [1]; vs saline group,15%
same,"% decrease, femoral cartilage degeneration score",MMT/MCLT rat model of OA [1]; vs saline group,2%
same,"% decrease, osteophyte measure",MMT/MCLT rat model of OA [1]; vs saline group,7%
same,"% decrease, osteophyte score",MMT/MCLT rat model of OA [1]; vs saline group,7%
same,"% decrease, significant degeneration width",MMT/MCLT rat model of OA [1]; vs saline group,11%
same,"% decrease, tibial score 3-zone total",MMT/MCLT rat model of OA [1]; vs saline group,11%
same,"% decrease, tibial score zone 1",MMT/MCLT rat model of OA [1]; vs saline group,12%
same,"% decrease, tibial score zone 2",MMT/MCLT rat model of OA [1]; vs saline group,8%
same,"% decrease, tibial score zone 3",MMT/MCLT rat model of OA [1]; vs saline group,100%
same,"% decrease, total degeneration width",MMT/MCLT rat model of OA [1]; vs saline group,10%
same,"% decrease, total joint score",MMT/MCLT rat model of OA [1]; vs saline group,8%
same,"% decrease, total joint score w/o femur",MMT/MCLT rat model of OA [1]; vs saline group,10%
same,"Weight bearing, hours with significant effect",MMT/MCLT rat model of OA [2]; day 7,5 h
same,"Weight bearing, hours with significant effect",MMT/MCLT rat model of OA [2]; day 14,1 h

# From PMC4721142, “Randomized controlled studies on the efficacy of antiarthritic agents in inhibiting cartilage degeneration and pain associated with progression of osteoarthritis in the rat” (Arthritis Research & Therapy, 2016)
